Article PMC3369218 (Biochemistry, 2012)
Where two headings read alike, the source gives them in different places.

What was measured:
[1] = target: WT DaCld (Dechloromonas aromatica, UniProt Q47CX0); experiment: Equilibrium binding of ligands, spectrophotometric titration, WT DaCld
[2] = target: DaCld(R183K) (Dechloromonas aromatica, UniProt Q47CX0, R217K); experiment: biochemical; type: binding
[3] = target: DaCld(R183A) (Dechloromonas aromatica, UniProt Q47CX0, R217A); experiment: biochemical; type: binding
[4] = target: DaCld(R183Q) (Dechloromonas aromatica, UniProt Q47CX0, R217Q); experiment: biochemical; type: binding
[5] = cited from earlier work

Sequence of DaCld(R183A) (Q47CX0 35-282 R217A): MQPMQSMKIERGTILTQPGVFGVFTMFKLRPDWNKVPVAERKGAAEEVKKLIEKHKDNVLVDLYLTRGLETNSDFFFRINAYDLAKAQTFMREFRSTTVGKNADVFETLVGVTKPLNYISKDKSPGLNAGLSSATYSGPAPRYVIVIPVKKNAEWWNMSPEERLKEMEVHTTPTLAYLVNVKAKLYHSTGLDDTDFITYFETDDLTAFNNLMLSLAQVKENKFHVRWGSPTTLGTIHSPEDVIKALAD
Sequence of WT DaCld (Q47CX0 32-282): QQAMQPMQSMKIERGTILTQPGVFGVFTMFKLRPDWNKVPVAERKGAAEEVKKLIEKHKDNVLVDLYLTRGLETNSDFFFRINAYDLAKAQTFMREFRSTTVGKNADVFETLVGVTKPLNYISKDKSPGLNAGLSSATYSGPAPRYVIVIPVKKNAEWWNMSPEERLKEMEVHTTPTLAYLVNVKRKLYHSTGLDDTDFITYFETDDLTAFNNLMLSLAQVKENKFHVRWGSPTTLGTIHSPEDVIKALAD
Sequence of DaCld(R183Q) (Q47CX0 35-282 R217Q): as the sequence (Q47CX0 35-282 R217A) above, with A183Q counted along it
Sequence of DaCld(R183K) (Q47CX0 35-282 R217K): as the sequence (Q47CX0 35-282 R217A) above, with A183K counted along it

Molecule `[N-]=[N+]=[N-]` [N3^–, azide] has a Kd ([1]; read-out: Maximal KD, pH 7) of 8.3 ± 0.1 µM.
Molecule `c1c[nH]cn1` [imidazole] has a Kd [2] of 18 ± 1 µM, a Kd [1] of 9.6 ± 0.3 µM and a Kd [3] of 21 ± 1 µM. The “pKa1 of pKD versus pH curve” value [3] was 6.8 ± 0.1, the Kd [4] was 27 ± 1 µM and the “pKa1 of pKD versus pH curve” value [4] was 6.7 ± 0.1.
In the case of Myoglobin, the reduction potential [5] is listed as 46 mV.
